Like-named read-outs stand apart in the source and are kept apart here.
Assays:
[1] = test system: Haemonchus contortus larval stage 4, isolate with a resistance to benzimidazoles and ivermectin and anthelmintic-sensitive isolate; test: Resistance-breaking activity against Haemonchus contortus L4 in vitro, resistant isolate compared with sensitive isolate; format: cell-based; conditions: isolate resistant to benzimidazoles and ivermectin vs sensitive isolate
Experimental: Anthelmintic resistance-breaking effects of compounds of this invention were tested in vitro using larval stage 4 (“L4”) of the parasitic nematode species Haemonchus contortus (Barber's pole worm in ruminants). One isolate of Haemonchus contortus with a resistance to benzimidazoles and ivermectin was tested in comparison to the anthelmintic-sensitive isolate of Haemonchus contortus. When conducting these experiments, various concentrations of the compounds were incubated in 96-well microtiter plates. Parasites were then distributed at 20 larvae per well. The anthelmintic effects were classified by microscopic examination. The microscopic examination included assessing mortality, damage, motility, progression of development, and neutral red uptake by the larvae in comparison to a DMSO-control and standard anthelmintics. The anthelmintic effects were defined by the minimum effective concentration (“MEC”).

[2] = test system: Haemonchus contortus; test: Efficacy against Haemonchus contortus in jirds; format: in vivo, jirds (Meriones unguiculatus); conditions: 72 h, read-out: % Reduction in H.
Experimental: Anthelmintic effects of compounds of this invention were tested in vivo using Haemonchus contuortus in jirds (Meriones unguiculatus). The jirds were orally infected with approximately 750-3,000 third-stage larvae of Haemonchus contortus. Ten days after infection, the jirds in the treatment groups were treated once orally or subcutaneously at a dose of 2, 10, and/or 50 mg per kg bodyweight. Three days after treatment, the jirds were necropsied, and the larvae burden in the stomach is determined. The efficacy is defined as the reduction of the mean larvae count in the jirds of the treatment groups in comparison to the infected jirds in the untreated negative control group.

[3] = test system: A. galli (intestinal roundworm of chicken) larval stage 3; O. dentatum (nodular worm of swine) larval stages 3 and 4; test: Activity against Ascaridia galli and Oesophagostomum dentatum larvae in vitro (minimum effective concentration); format: cell-based
[4] = read-out: MEC (minimum effective concentration) against one or more of the tested nematodes, in vitro, one or more of A. galli L3, O. dentatum L3, L4, threshold 1 μM
[5] = read-out: MEC (minimum effective concentration) against one or more of the tested nematodes, in vitro, one or more of A. galli L3, O. dentatum L3, L4, threshold 7 μM
[6] = read-out: MEC (minimum effective concentration) against two or more of the tested nematodes, in vitro, two or more of A. galli L3, O. dentatum L3, L4, threshold 1 μM
[7] = in vitro, one or more of A. galli L3, O. dentatum L3, L4, threshold 1 μM, read-out: MEC (minimum effective concentration) against one or more of the tested nematodes
[8] = in vitro, one or more of A. galli L3, O. dentatum L3, L4, threshold 7 μM, read-out: MEC (minimum effective concentration) against one or more of the tested nematodes
[9] = in vitro, two or more of A. galli L3, O. dentatum L3, L4, threshold 1 μM, read-out: MEC (minimum effective concentration) against two or more of the tested nematodes
[10] = jirds, 10 mg/kg, oral, single treatment, larvae burden in stomach 3 days after treatment
[11] = sc, jirds, 10 mg/kg, subcutaneous, single treatment, larvae burden in stomach 3 days after treatment
[12] = jirds, 50 mg/kg, oral, single treatment, larvae burden in stomach 3 days after treatment
[13] = sc, jirds, 50 mg/kg, subcutaneous, single treatment, larvae burden in stomach 3 days after treatment

| Compound | inhibition in vivo at 50 mg/kg ([2]; po) [%] | inhibition in vivo at 50 mg/kg ([2]; sc) [%] | minimal effective concentration [3, 4] [µM] | minimal effective concentration [3, 5] [µM] | minimal effective concentration [3, 6] [µM] | minimal effective concentration [3, 9] [µM] | other results |
| --- | --- | --- | --- | --- | --- | --- | --- |
| O=C(CCN1CCC(c2ccc(Oc3ccccc3)cc2)CC1)N1CCC(Oc2ccc([N+](=O)[O-])c(C(F)(F)F)c2)CC1 [Example 45, 1-[4-(4-nitro-3-trifluoromethyl-phenoxy)-piperidin-1-yl]-3-[4-(4-phenoxy-phenyl)-piperidin-1-yl]-propan-1-one] | 94 | 94 |  |  |  |  | activity (MEC) against the resistant versus the sensitive isolate of Haemonchus contortus [1]: the same activity against the resistant and the sensitive isolate |
| O=C(CCCN1CCN(c2ccc(C(F)(F)F)cn2)CC1)N1CCC(Nc2ccc([N+](=O)[O-])c(C(F)(F)F)c2)CC1 [Example 151, 1-[4-(4-nitro-3-trifluoromethyl-phenylamino)-piperidin-1-yl]-4-[4-(5-trifluoromethyl-pyridin-2-yl)-piperazin-1-yl]-butan-1-one] |  |  | < 1 | < 7 | < 1 |  | inhibition in vivo at 10 mg/kg ([2]; po): 88%; inhibition in vivo at 10 mg/kg ([2]; sc): 84% |
| O=C(CCCN1CCN(c2ccc(C(F)(F)F)cc2)CC1)N1CCC(Nc2ccc(SC(F)(F)F)cc2)CC1 [Example 48, 4-[4-(4-trifluoromethyl-phenyl)-piperazin-1-yl]-1-[4-(4-trifluoromethylsulfanyl-phenylamino)-piperidin-1-yl]-butan-1-one] |  |  | < 1 | < 7 | < 1 |  | activity (MEC) against the resistant versus the sensitive isolate of Haemonchus contortus [1]: the same activity against the resistant and the sensitive isolate; inhibition in vivo at 10 mg/kg ([2]; po): 99%; inhibition in vivo at 10 mg/kg ([2]; sc): 92% |
| O=C(CCCN1CCN(c2ccc(C(F)(F)F)cc2)CC1)N1CCC(Nc2ccc(Cl)c(SC(F)(F)F)c2)CC1 [Example 17, 1-[4-(4-chloro-3-trifluoromethylsulfanyl-phenylamino)-piperidin-1-yl]-4-[4-(4-trifluoromethyl-phenyl)-piperazin-1-yl]-butan-1-one] | 100 | 96 | < 1 | < 7 | < 1 |  |  |
| O=C(CCN1CCN(c2ccc(C(F)(F)F)nc2)CC1)N1CCC(Nc2ccc([N+](=O)[O-])c(C(F)(F)F)c2)CC1 [Example 126, 1-[4-(4-nitro-3-trifluoromethyl-phenylamino)-piperidin-1-yl]-3-[4-(6-trifluoromethyl-pyridin-3-yl)-piperazin-1-yl]-propan-1-one] |  |  | < 1 | < 7 | < 1 |  | inhibition in vivo at 10 mg/kg ([2]; po): 64%; inhibition in vivo at 10 mg/kg ([2]; sc): 86% |
| O=C(CCCN1CCN(c2ccc(C(F)(F)F)cc2)CC1)NC1CCN(c2ccc([N+](=O)[O-])c(C(F)(F)F)c2)CC1 [Example 73, N-[1-(4-nitro-3-trifluoromethyl-phenyl)-piperidin-4-yl]-4-[4-(4-trifluoromethyl-phenyl)-piperazin-1-yl]-butyramide] |  |  |  |  |  | < 1 | minimal effective concentration [3, 7]: < 1 µM; minimal effective concentration [3, 8]: < 7 µM; inhibition in vivo at 10 mg/kg [2, 10]: 54%; inhibition in vivo at 10 mg/kg [2, 11]: 63% |
| CC(C)COc1ccc(N2CCN(CCC(=O)N3CCC(Nc4ccc([N+](=O)[O-])c(C(F)(F)F)c4)CC3)CC2)cc1 [Example 26, 3-[4-(4-isobutoxy-phenyl)-piperazin-1-yl]-1-[4-(4-nitro-3-trifluoromethyl-phenylamino)-piperidin-1-yl]-propan-1-one] | 64 | 91 | < 1 | < 7 | < 1 |  |  |
| Cn1nnc(-c2ccc(NC3CCN(C(=O)CCCN4CCN(c5ccc(C(F)(F)F)cc5)CC4)CC3)cc2)n1 [Example 21, 1-{4-[4-(2-methyl-1H-tetrazol-5-yl)-phenylamino]-piperidin-1-yl}-4-[4-(4-trifluoromethyl-phenyl)-piperazin-1-yl]-butan-1-one] | 95 | 38 | < 1 | < 7 | < 1 |  |  |
| CC(CN1CCN(c2ccc(Cl)cc2)CC1)C(=O)N1CCC(Nc2ccc([N+](=O)[O-])c(C(F)(F)F)c2)CC1 (stereo not shown) [Example 61, 3-[4-(4-chloro-phenyl)-piperazin-1-yl]-2-methyl-1-[4-(4-nitro-3-trifluoromethyl-phenylamino)-piperidin-1-yl]-propan-1-one] | 100 | 100 | < 1 | < 7 | < 1 |  |  |
| C[C@@H](CN1CCN(c2ccc(C(F)(F)F)cc2)CC1)C(=O)N1CCC(Nc2ccc([N+](=O)[O-])c(C(F)(F)F)c2)CC1 [Example 68, (S)-2-methyl-1-[4-(4-nitro-3-trifluoromethyl-phenylamino)-piperidin-1-yl]-3-[4-(4-trifluoromethyl-phenyl)-piperazin-1-yl]-propan-1-one] |  |  |  |  |  | < 1 | minimal effective concentration [3, 7]: < 1 µM; minimal effective concentration [3, 8]: < 7 µM; inhibition in vivo at 10 mg/kg [2, 10]: 99%; inhibition in vivo at 10 mg/kg [2, 11]: 99% |
| O=C(CCCN1CCN(c2ccc(C(F)(F)F)cc2)CC1)NC1CCN(c2ccc(SC(F)(F)F)cc2)CC1 [Example 76, 4-[4-(4-trifluoromethyl-phenyl)-piperazin-1-yl]-N-[1-(4-trifluoromethylsulfanyl-phenyl)-piperidin-4-yl]-butyramide] |  |  |  |  |  | < 1 | minimal effective concentration [3, 7]: < 1 µM; minimal effective concentration [3, 8]: < 7 µM; inhibition in vivo at 10 mg/kg [2, 10]: 67%; inhibition in vivo at 10 mg/kg [2, 11]: 13% |
| O=C(CCCN1CCN(c2ccc(C(F)(F)F)cc2)CC1)N1CCC(Nc2ccc(S(=O)(=O)c3ccc(F)cc3)cc2)CC1 [Example 33, 1-{4-[4-(4-fluoro-benzenesulfonyl)-phenylamino]-piperidin-1-yl}-4-[4-(4-trifluoromethyl-phenyl)-piperazin-1-yl]-butan-1-one] | 55 | 69 | < 1 | < 7 | < 1 |  |  |
| O=C(CCN1CCN(c2ccc(Cl)cc2)CC1)N1CCC(Nc2ccc(S(=O)(=O)c3ccc(F)cc3)cc2)CC1 [Example 295] |  |  |  |  |  | < 1 | inhibition in vivo at 50 mg/kg [2, 12]: 97%; inhibition in vivo at 50 mg/kg [2, 13]: 0% |
| Cn1nnc(-c2ccc(NC3CCN(C(=O)CCN4CCN(c5ccc(C(C)(C)C)cc5)CC4)CC3)cc2)n1 [Example 444] |  |  |  |  |  | < 1 | minimal effective concentration [3, 7]: < 1 µM; minimal effective concentration [3, 8]: < 7 µM; inhibition in vivo at 50 mg/kg [2, 12]: 78%; inhibition in vivo at 50 mg/kg [2, 13]: 52% |
| Cc1cc(NC2CCN(C(=O)CCCN3CCN(c4ccc(C(F)(F)F)cc4)CC3)CC2)ncc1[N+](=O)[O-] [Example 71, 1-[4-(4-methyl-5-nitro-pyridin-2-ylamino)-piperidin-1-yl]-4-[4-(4-trifluoromethyl-phenyl)-piperazin-1-yl]-butan-1-one] | 55 | 35 | < 1 | < 7 | < 1 |  |  |
| O=C(CCN1CCC(c2ccc(C(F)(F)F)cc2)CC1)N1CCC(Nc2ccc([N+](=O)[O-])c(C(F)(F)F)c2)CC1 [Example 14, 1-[4-(4-nitro-3-trifluoromethyl-phenylamino)-piperidin-1-yl]-3-[4-(4-trifluoromethyl-phenyl)-piperidin-1-yl]-propan-1-one] | 87 | 99 | < 1 | < 7 | < 1 |  |  |
| COc1cc(NC2CCN(C(=O)CCN3CCN(c4ccc(Cl)cc4)CC3)CC2)ccc1[N+](=O)[O-] [Example 385] |  |  |  |  |  | < 1 | minimal effective concentration [3, 7]: < 1 µM; minimal effective concentration [3, 8]: < 7 µM; inhibition in vivo at 50 mg/kg [2, 12]: 0%; inhibition in vivo at 50 mg/kg [2, 13]: 83% |

From US9096524B2, “Anthelmintic agents and their use” (Intervet International B.V., priority 2009, dated 2015)
